Marks after values point to notes of the source that are not given here.
Key:
[1] = Pharmacokinetics in rats after single po and iv dosing; details: for AUC(0-inf): plasma
Caco2 = Caco2 permeability; format: in vitro ADME
Caco2 permeability = format: in vitro ADME; details: human, Caco-2
[2] = Stability in rat liver microsomes; format: in vitro ADME
[3] = rats, po, dose normalized to 30 mg/kg

Row | clearance ([1]; rat, in vivo, iv, 30 mg/kg) | BA ([1]; rats, 30 mg/kg, po) | AUC (0-∞) (dose normalized to 30 mg/kg) [1, 3] | Cmax (dose normalized to 30 mg/kg) [1, 3] | Caco2 permeability (Caco2) | solubility (Solubility) | half-life ([1]; rat, in vivo, iv, 30 mg/kg) | AUC ([1]; rat, in vivo, po, 30 mg/kg) | Cmax ([1]; rat, in vivo, po, 30 mg/kg) | half-life ([1]; rat, in vivo, po, 30 mg/kg) | AUC(0-inf) ([1]; rat, iv, 30 mg/kg) | AUC(0-inf) ([1]; rat, po, 30 mg/kg) | Papp (Caco2 permeability) | remaining at 0.25 h [2] | Compound
1 | 113 mL/min/kg | 1.9% | 74.4^a ng h/m | 16.7^a ng/mL | not detected | less than 5 μM | – | – | – | – | – | – | – | – | CCCCN1C(=O)C(CC2CCCCC2)NC(=O)C12CCN(Cc1ccc(Oc3ccccc3)cc1)CC2.Cl (centres unmarked) [Compound 1a]
2 | 16 mL/min/kg | 34.1% | – | – | – | 26 µM | 11.1 min | 10500 ng·h/mL | 7200 ng/mL | 48.4 min | 3090 ng·h/mL | 10500 ng·h/mL | 26.4 ×10⁻⁶ cm/s | 22% | CCCCN1C(=O)[C@H](CC2CCCCC2)NC(=O)C12CCN(Cc1ccc(Oc3ccc(C(=O)O)cc3)cc1)CC2.Cl [Compound 12, 4-(4-{[(3S)-1-butyl-3-(cyclohexylmethyl)-2,5-dioxo-1,4,9-triaza-spiro[5.5]undec-9-yl]methyl}phenoxy)benzoic acid hydrochloride]

Source: PMC7553643 (Bioorganic & medicinal chemistry letters, 2009)
